Patent publication US20100105647A1 (priority 2007, published 2010)

Tested on: Alternaria brassicicola
Assay: Test of Preventive Effect on Japanese Radish Alternaria Leaf Spot
Assay type: in vivo
Conditions: Japanese radish (cultivar: Wase 40-nichi), foliage application 500 ppm, 1 day high humidity at 24° C. plus 3 days greenhouse
Experimental: The controlling effect was evaluated by visually observing the area of lesion spots on each of test plants at the time of investigation and comparing the area of lesion spots on a plant treated with the present compound with that on an untreated plant.
Test of Preventive Effect on Japanese Radish Alternaria Leaf Spot (Alternaria brassicicola)
Each of plastic pots was filled with sandy loam and sown with Japanese radish (cultivar: Wase 40-nichi), followed by growing in a greenhouse for 5 days. Each of the present compounds 1-19, 21-40 and 41 was formulated into a flowable formulation according to Formulation Example 6. The flowable formulation was diluted to a predetermined concentration (500 ppm) with water, and foliage application of the dilution was carried out so that the dilution adhered sufficiently to the surfaces of leaves of the Japanese radish. After the foliage application, the plant was air-dried and then inoculated by spraying a water suspension of spores of Alternaria brassicicola. After the inoculation, the plant was held under high humidity conditions at 24° C. for 1 day and held in a greenhouse for 3 days, and then the area of lesion spots was investigated.

C#CCOc1c(F)cc(C(=O)NCC2=CCCCC2)cc1F [compound 18]
area of lesion spots on the treated plant relative to that on an untreated plant: ≤ 30%
